In ChEMBL document CHEMBL1201862, “PubChem BioAssay data set” (2004):
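Exposure lasted 48 hours, with cells grown in 96-well plates and compounds tested at five concentrations. At the GI50, growth is halved.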 Activity calls are given as the source filed them. Rule as the data show it: active = GI50 up to about 1.1 µM and inactive = higher.

Experiments:
Assay in all cases: DTP human tumour cell line panel, 48 h
NCI-H522 = tested on: NCI-H522
HT-29 = tested on: HT-29
UO-31 = tested on: UO-31
MOLT-4 = tested on: MOLT-4
SK-MEL-28 = tested on: SK-MEL-28
OVCAR-4 = tested on: OVCAR-4
UACC-62 = tested on: UACC-62
UACC-257 = tested on: UACC-257
CAKI-1 = tested on: CAKI-1
RXF 393 = tested on: RXF 393
SN12C = tested on: SN12C
NCI-H460 = tested on: NCI-H460
CCRF-CEM = tested on: CCRF-CEM
K562 = tested on: K562
SF-295 = tested on: SF-295
A549 = tested on: A549
SNB-75 = tested on: SNB-75
RPMI-8226 = tested on: RPMI-8226
SK-MEL-5 = tested on: SK-MEL-5
SNB-19 = tested on: SNB-19

## COc1ccc(C2=NN(C(=O)c3ccc(Cl)cc3)C(O)(c3cc(F)c(Cl)cc3Cl)C2)cc1 (stereo not given)
NCI-H522
  GI50: > 100 µM (inactive)
HT-29
  GI50: 17.3 µM (inactive)
UO-31
  GI50: 16.9 µM (inactive)
MOLT-4
  GI50: 12.8 µM (inactive)
SK-MEL-28
  GI50: > 100 µM (inactive)
OVCAR-4
  GI50: 8.61 µM (inactive)
UACC-62
  GI50: > 100 µM (inactive)
UACC-257
  GI50: 49.9 µM (inactive)
CAKI-1
  GI50: 27.4 µM (inactive)
RXF 393
  GI50: > 100 µM (inactive)
SN12C
  GI50: 39.1 µM (inactive)
NCI-H460
  GI50: 56.8 µM (inactive)
CCRF-CEM
  GI50: 50.2 µM (inactive)
K562
  GI50: 40.6 µM (inactive)
SF-295
  GI50: > 100 µM (inactive)
A549
  GI50: 49.2 µM (inactive)
SNB-75
  GI50: 15 µM (inactive)
RPMI-8226
  GI50: 22.9 µM (inactive)
SK-MEL-5
  GI50: > 100 µM (inactive)
SNB-19
  GI50: > 100 µM (inactive)

## COc1ccc(C(=C2C=CC=C2)c2ccc(OC)cc2)cc1
NCI-H522
  GI50: 19.3 µM (inactive)
HT-29
  GI50: 24 µM (inactive)
UO-31
  GI50: 28.5 µM (inactive)
MOLT-4
  GI50: 14.5 µM (inactive)
SK-MEL-28
  GI50: 53.5 µM (inactive)
OVCAR-4
  GI50: > 100 µM (inactive)
UACC-62
  GI50: 33.7 µM (inactive)
UACC-257
  GI50: 34.4 µM (inactive)
CAKI-1
  GI50: 23 µM (inactive)
RXF 393
  GI50: 25.2 µM (inactive)
SN12C
  GI50: 37.1 µM (inactive)
NCI-H460
  GI50: 32 µM (inactive)
CCRF-CEM
  GI50: 21.9 µM (inactive)
K562
  GI50: 22.2 µM (inactive)
SF-295
  GI50: 16.9 µM (inactive)
A549
  GI50: 44.9 µM (inactive)
SNB-75
  GI50: 59 µM (inactive)
RPMI-8226
  GI50: 0.783 µM (active)
SK-MEL-5
  GI50: 30.2 µM (inactive)
SNB-19
  GI50: 28 µM (inactive)

## C#CCNC(=O)CCC(N)C(=O)O (stereo not given)
NCI-H522
  GI50: > 100 µM (inactive)
HT-29
  GI50: > 100 µM (inactive)
UO-31
  GI50: > 100 µM (inactive)
MOLT-4
  GI50: > 100 µM (inactive)
SK-MEL-28
  GI50: > 100 µM (inactive)
OVCAR-4
  GI50: > 100 µM (inactive)
UACC-62
  GI50: > 100 µM (inactive)
UACC-257
  GI50: > 100 µM (inactive)
CAKI-1
  GI50: > 100 µM (inactive)
RXF 393
  GI50: > 100 µM (inactive)
SN12C
  GI50: > 100 µM (inactive)
NCI-H460
  GI50: > 100 µM (inactive)
CCRF-CEM
  GI50: > 100 µM (inactive)
K562
  GI50: > 100 µM (inactive)
SF-295
  GI50: > 100 µM (inactive)
A549
  GI50: > 100 µM (inactive)
SNB-75
  GI50: > 100 µM (inactive)
RPMI-8226
  GI50: > 100 µM (inactive)
SK-MEL-5
  GI50: > 100 µM (inactive)
SNB-19
  GI50: > 100 µM (inactive)

## CC[N+]1(C)CCC(O)(c2ccccc2)C(C(=O)c2ccccc2)C1 (stereo not given)
NCI-H522
  GI50: 1.75 µM (inactive)
HT-29
  GI50: 12.5 µM (inactive)
UO-31
  GI50: 18.7 µM (inactive)
MOLT-4
  GI50: 3.04 µM (inactive)
SK-MEL-28
  GI50: 15.2 µM (inactive)
OVCAR-4
  GI50: 11.8 µM (inactive)
UACC-62
  GI50: 19 µM (inactive)
UACC-257
  GI50: 17.5 µM (inactive)
CAKI-1
  GI50: 4.14 µM (inactive)
RXF 393
  GI50: 12.4 µM (inactive)
SN12C
  GI50: 11.6 µM (inactive)
NCI-H460
  GI50: 21.7 µM (inactive)
CCRF-CEM
  GI50: 2.04 µM (inactive)
K562
  GI50: 2.11 µM (inactive)
SF-295
  GI50: 19 µM (inactive)
A549
  GI50: 16 µM (inactive)
SNB-75
  GI50: 12.6 µM (inactive)
RPMI-8226
  GI50: 2 µM (inactive)
SK-MEL-5
  GI50: 18.6 µM (inactive)
SNB-19
  GI50: 15.5 µM (inactive)

## O=C(O)C(Br)Cc1ccc2c(c1)OCO2 (stereo not given)
NCI-H522
  GI50: > 100 µM (inactive)
HT-29
  GI50: > 100 µM (inactive)
UO-31
  GI50: > 100 µM (inactive)
MOLT-4
  GI50: > 100 µM (inactive)
SK-MEL-28
  GI50: > 100 µM (inactive)
OVCAR-4
  GI50: 88.7 µM (inactive)
UACC-62
  GI50: 62.1 µM (inactive)
UACC-257
  GI50: > 100 µM (inactive)
CAKI-1
  GI50: > 100 µM (inactive)
RXF 393
  GI50: 71.9 µM (inactive)
SN12C
  GI50: > 100 µM (inactive)
NCI-H460
  GI50: > 100 µM (inactive)
CCRF-CEM
  GI50: > 100 µM (inactive)
K562
  GI50: > 100 µM (inactive)
SF-295
  GI50: 55.5 µM (inactive)
A549
  GI50: > 100 µM (inactive)
SNB-75
  GI50: 20.9 µM (inactive)
RPMI-8226
  GI50: > 100 µM (inactive)
SK-MEL-5
  GI50: > 100 µM (inactive)
SNB-19
  GI50: > 100 µM (inactive)

## COC1=C(C)C(=O)C2=C(C1=O)[C@@H]1[C@@H]3Cc4c(OC(=O)CO)c(C)c(OC)c(O)c4[C@H](CNC(=O)C(C)=O)N3[C@@H](C#N)[C@H](C2)N1C
NCI-H522
  GI50: < 0.01 µM (active)
HT-29
  GI50: 0.0182 µM (active)
UO-31
  GI50: 0.0738 µM (active)
MOLT-4
  GI50: 0.0286 µM (active)
SK-MEL-28
  GI50: 0.0713 µM (active)
OVCAR-4
  GI50: 0.106 µM (active)
UACC-62
  GI50: < 0.0208 µM (active)
UACC-257
  GI50: < 0.0152 µM (active)
CAKI-1
  GI50: < 0.01 µM (active)
RXF 393
  GI50: 0.0184 µM (active)
SN12C
  GI50: 0.013 µM (active)
NCI-H460
  GI50: 0.107 µM (active)
CCRF-CEM
  GI50: 0.0271 µM (active)
K562
  GI50: < 0.01 µM (active)
SF-295
  GI50: 0.199 µM (active)
A549
  GI50: 0.366 µM (active)
SNB-75
  GI50: < 0.0353 µM (active)
RPMI-8226
  GI50: < 0.0142 µM (active)
SK-MEL-5
  GI50: 0.0154 µM (active)
SNB-19
  GI50: 0.0414 µM (active)

## BrC(/C=N/Nc1nnc(-c2ccccc2)c(-c2ccccc2)n1)C(Br)c1ccccc1 (stereo not given)
NCI-H522
  GI50: 14.5 µM (inactive)
HT-29
  GI50: 34 µM (inactive)
UO-31
  GI50: 19.7 µM (inactive)
MOLT-4
  GI50: 17.7 µM (inactive)
SK-MEL-28
  GI50: 37.3 µM (inactive)
OVCAR-4
  GI50: > 10 µM (inactive)
UACC-62
  GI50: 18.6 µM (inactive)
UACC-257
  GI50: 14.1 µM (inactive)
CAKI-1
  GI50: 30.7 µM (inactive)
RXF 393
  GI50: 25.1 µM (inactive)
SN12C
  GI50: 48.8 µM (inactive)
NCI-H460
  GI50: 35.2 µM (inactive)
CCRF-CEM
  GI50: 24.9 µM (inactive)
K562
  GI50: 22.6 µM (inactive)
SF-295
  GI50: 30.5 µM (inactive)
A549
  GI50: 29.3 µM (inactive)
SNB-75
  GI50: 22.2 µM (inactive)
RPMI-8226
  GI50: 14.4 µM (inactive)
SK-MEL-5
  GI50: 21.9 µM (inactive)
SNB-19
  GI50: 64.4 µM (inactive)

## C[C@H](N)C(=O)N[C@@H]1[C@H]2C(=C(O)C[C@@H](O)[C@@H]2O)C(=O)O[C@@H]1C
NCI-H522
  GI50: > 100 µM (inactive)
HT-29
  GI50: > 100 µM (inactive)
UO-31
  GI50: > 100 µM (inactive)
MOLT-4
  GI50: > 100 µM (inactive)
SK-MEL-28
  GI50: > 100 µM (inactive)
OVCAR-4
  GI50: > 100 µM (inactive)
UACC-62
  GI50: > 100 µM (inactive)
UACC-257
  GI50: > 100 µM (inactive)
CAKI-1
  GI50: > 100 µM (inactive)
RXF 393
  GI50: > 100 µM (inactive)
SN12C
  GI50: > 100 µM (inactive)
NCI-H460
  GI50: > 100 µM (inactive)
CCRF-CEM
  GI50: > 53.8 µM (inactive)
K562
  GI50: > 100 µM (inactive)
SF-295
  GI50: > 100 µM (inactive)
A549
  GI50: > 100 µM (inactive)
SNB-75
  GI50: > 100 µM (inactive)
RPMI-8226
  GI50: > 100 µM (inactive)
SK-MEL-5
  GI50: > 100 µM (inactive)
SNB-19
  GI50: 77.4 µM (inactive)
